We go through 1 molecule from paper PMC12909347, “Disconnect between in vitro and in vivo efficacy of the MPS1 inhibitor NTRC 0066-0 against glioblastoma” (Cellular Oncology, 2026).

Data set [1] is described as follows: Pharmacokinetics and brain penetration in wild-type FVB mice. The class given is in vivo. The procedure:
(§1) The pharmacokinetics of NTRC 0066-0 were analyzed in wild-type (WT), Abcb1a/b^−/−, Abcg2^−/−, Abcb1a/b^−/−;Abcg2^−/− and Abcb1a/b^−/−;Abcg2^−/−;Abcc4^−/− FVB mice. All knockout mice strains have been developed at the Netherlands Cancer Institute. For i.v. administration, NTRC0066-0 was formulated in DMSO: Cremophor EL: saline (1:1:8 v/v) and injected at a dose of 5 mg/kg. For i.p and oral administration, NTRC0066-0 was administered at 5, 10 or 20 mg/kg as indicated. Serial blood sampling was done by tail vein bleeding at specific time points. At terminal time points, blood was drawn by cardiac puncture followed by tissue collection. Plasma was obtained from whole blood by centrifugation (5 min, 5,000 rpm, 4 °C) and tissues were weighed and homogenized using a FastPrep®-24 (MP-Biomedicals, NY) in 1% (w/v) bovine serum albumin (Sigma-Aldrich) in water.
NTRC 0066-0 was extracted from in vitro and in vivo samples using liquid–liquid extraction with diethyl ether. Another MPS-1 inhibitor, Compound 5 (Cpd-5), was added to the samples as an internal standard. The dried organic phase was reconstituted in 30% methanol in water (v/v). Samples were measured using an LC-MS/MS system comprising an UltiMate 3000 LC Systems (Dionex, Sunnyvale, CA) and an API 4000 mass spectrometer (Sciex, Framingham, MA). Samples were injected on to a Securityguard C18 pre-column (Phenomenex, Utrecht, The Netherlands) connected to a ZORBAX Extend-C18 column (Agilent, Santa Clara, CA). Elution was done at a flow rate of 0.2 mL/min using a 5 min gradient from 20% to 95% B (mobile phase A was 0.1% HCOOH in water (v/v) and mobile phase B was methanol). 95% B was maintained for 3 min followed by re-equilibration at 20% B. Multiple reaction monitoring parameters were 566.2/391.4 (NTRC0066-0) and 581.6/397.0 (internal standard). Analyst® 1.6.2 software (Sciex) was used for system control and data analysis.
PK solver was used to determine pharmacokinetic parameters. The standard error of the oral bioavailability was calculated using the formula below: […]

Data set [2] concerns orthotopic E98 GBM tumors. Kind of data set: Quantification of mitotic errors in E98 tumors. The class given is in vivo, mice. As to conditions: end-stage E98 tumors, 5/10 mg/kg b.i.d.x7d. The procedure: Tumor-bearing mouse brains were formalin-fixed, paraffin-embedded and coronal Sect. (10 μm) were sliced using an RM2255 microtome (Leica, Wetzlar, Germany). Sections were subsequently deparaffinized using xylene, incubated in citrate buffer for antigen retrieval, blocked with 4% (w/v) BSA in TBS-T, incubated with rabbit-α-pH3^Ser10 (1:250 for 3 h at room temperature; Merck Millipore, Burlington, MA), incubated with goat-α-rabbit-AF568 (1:250 for 45 min at room temperature; Thermo Fisher Scientific, Waltham, MA) and mounted with Vectashield hardset antifade mounting medium with DAPI (Vector Laboratories, Burlingame, CA). Mitotic errors were imaged and scored using a Deltavision ultra high resolution microscope (Applied Precision Inc., Issaquah, WA).

The next data set has as its target T1, MRP4 (Mus musculus, UniProt E9Q236).
T1 construct: Abcb1a/b; from tissue; host or cells: blood-brain barrier / brain of FVB mice (Abcb1a/b;Abcg2;Abcc4-/- versus other strains)
T1 sequence (E9Q236 1-1325): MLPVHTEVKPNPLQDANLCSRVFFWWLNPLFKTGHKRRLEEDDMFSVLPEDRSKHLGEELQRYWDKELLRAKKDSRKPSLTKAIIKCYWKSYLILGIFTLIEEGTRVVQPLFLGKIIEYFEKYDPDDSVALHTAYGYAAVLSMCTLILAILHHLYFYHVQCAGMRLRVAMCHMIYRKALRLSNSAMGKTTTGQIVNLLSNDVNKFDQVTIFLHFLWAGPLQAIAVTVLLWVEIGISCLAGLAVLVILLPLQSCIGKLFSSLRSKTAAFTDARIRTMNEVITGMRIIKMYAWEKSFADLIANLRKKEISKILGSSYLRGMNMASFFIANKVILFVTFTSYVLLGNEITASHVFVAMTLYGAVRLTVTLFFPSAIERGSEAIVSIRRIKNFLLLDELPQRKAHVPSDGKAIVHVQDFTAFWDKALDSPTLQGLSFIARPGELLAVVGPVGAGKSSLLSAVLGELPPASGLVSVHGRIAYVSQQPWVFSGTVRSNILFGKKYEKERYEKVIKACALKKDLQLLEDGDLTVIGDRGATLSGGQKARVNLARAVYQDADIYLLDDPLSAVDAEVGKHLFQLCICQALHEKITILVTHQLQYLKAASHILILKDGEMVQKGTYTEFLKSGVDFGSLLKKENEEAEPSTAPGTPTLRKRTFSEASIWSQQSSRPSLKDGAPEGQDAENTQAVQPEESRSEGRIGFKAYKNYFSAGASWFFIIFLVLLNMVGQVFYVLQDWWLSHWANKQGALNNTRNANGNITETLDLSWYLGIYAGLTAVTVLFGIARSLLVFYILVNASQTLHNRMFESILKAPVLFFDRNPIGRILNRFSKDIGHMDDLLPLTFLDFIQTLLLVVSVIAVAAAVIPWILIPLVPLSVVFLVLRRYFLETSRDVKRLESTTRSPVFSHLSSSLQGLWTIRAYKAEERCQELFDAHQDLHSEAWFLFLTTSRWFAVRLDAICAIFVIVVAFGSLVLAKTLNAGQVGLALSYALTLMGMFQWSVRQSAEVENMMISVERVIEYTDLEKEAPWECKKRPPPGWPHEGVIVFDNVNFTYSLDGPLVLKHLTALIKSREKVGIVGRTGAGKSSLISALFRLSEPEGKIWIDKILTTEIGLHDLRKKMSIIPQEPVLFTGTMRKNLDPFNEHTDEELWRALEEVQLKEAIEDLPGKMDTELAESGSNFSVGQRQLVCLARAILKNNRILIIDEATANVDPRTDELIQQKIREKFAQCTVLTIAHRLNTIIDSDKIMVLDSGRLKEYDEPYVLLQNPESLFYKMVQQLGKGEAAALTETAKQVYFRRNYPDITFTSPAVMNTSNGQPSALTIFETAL
Kind of data set: Brain penetration in Abcb1a/b;Abcg2;Abcc4-/- mice. In kind it is in vivo. Particulars: 1 h after 5 mg/kg i.v. How it is done:
as §1
NTRC 0066-0 was extracted from in vitro and in vivo samples using liquid–liquid extraction with diethyl ether. Another MPS-1 inhibitor, Compound 5 (Cpd-5), was added to the samples as an internal standard. The dried organic phase was reconstituted in 30% methanol in water (v/v). Samples were measured using an LC-MS/MS system comprising an UltiMate 3000 LC Systems (Dionex, Sunnyvale, CA) and an API 4000 mass spectrometer (Sciex, Framingham, MA). […]

The next data set deals with P-gp. Set-up: method as in PMID 26153498. Particulars: calcein-AM efflux assay; cited from earlier work.

By Cmax is commonly meant the highest concentration seen after dosing. One may read the MRT as the average time that molecules of a dose stay in the body. As to `CCc1cccc(CC)c1NC(=O)c1ccn2c1CCc1cnc(Nc3ccc(N4CCN(C)CC4)cc3OC)nc1-2` [NTRC 0066-0], the “Oral bioavailability (relative to i.p.)” value in data set [1] (WT mice) is “about 50%”. Besides, in data set [1] (WT mice, 1 h after 5 mg/kg i.v.), the Brain-plasma ratio result is “approximately 4”. In addition, the Brain-to-plasma ratio result in data set [1] (WT mice, 24 h after 10 mg/kg p.o. or i.p.) is given as “approximately 20”. In data set [1] (WT, i.p. 10 mg/kg), this molecule yielded a Cmax of 780 ± 130 nM, an MRT of 3.2 ± 0.4 h, a t1/2 of 2.5 ± 0.2 h and a tmax of 0.5 ± 0.3 h. In addition, in data set [1] (WT, i.p. 10 mg/kg, 0-∞), the “Plasma AUCi.p.” value worked out at 2.8 ± 0.45 µM·h. In data set [1] (WT, p.o. 10 mg/kg), this molecule displayed a Cmax of 180 ± 6.7 nM, an MRT of 4.7 ± 0.2 h, a t1/2 of 2.8 ± 0.2 h and a tmax of 1.8 ± 1.5 h. For the same molecule, the “F (bioavailability)” value in data set [1] (WT, p.o. 10 mg/kg relative to i.p.) is 59 ± 11%. In data set [1] (WT, p.o. 10 mg/kg, 0-∞), the “Plasma AUCp.o.” value is 1.7 ± 0.15 µM·h. Further, the “Number of mitotic errors in tumors” value in data set [2] is “did not increase the number of mitotic errors”. Also, the “Brain concentration compared to Abcb1a/b-/- mice” value at MRP4 is given as “did not display further increased”. Moreover, in the data set with P-gp, the “Inhibition of P-gp activity” value is given as “does not inhibit the activity of P-gp”.
